# Source: patent publication US7399775B2, “β-amyloid protein production/secretion inhibitor” (Daiichi Pharmaceutical Co., Ltd., priority 2001, dated 2008)
row,melting point,Structure (SMILES)
1,171 to 172 °C,"O=S(=O)(c1ccc(Cl)cc1)C(c1ccccn1)c1cc(F)ccc1F (centres unmarked) [Example 135, 2-[[(4-Chlorophenyl)sulfonyl]-(2,5-difluorophenyl)methyl]pyridine]"
2,128 to 129 °C,"Fc1ccc(F)c(C(Sc2ccc(Cl)cc2)c2cc(Cl)ncc2Cl)c1 (centres unmarked) [Example 342, 2,5-Dichloro-4-[(4-chlorophenylthio)-(2,5-difluorophenyl)methyl]pyridine]"
3,159 to 160 °C,"Cc1ccc(C(c2cc(F)ccc2F)S(=O)(=O)c2ccc(Cl)cc2)nc1 (centres unmarked) [Example 137, 2-[[(4-Chlorophenyl)sulfonyl]-(2,5-difluorophenyl)methyl]-5-methylpyridine]"
4,108 to 113 °C,"O=S(=O)(c1ccc(Cl)cc1)C(CCn1cccc1)c1cc(F)ccc1F (centres unmarked) [Example 297, 1-[3-[(4-Chlorophenyl)sulfonyl]-3-(2,5-difluorophenyl)propyl]-1H-pyrrole]"
5,147.5 to 148.5 °C,"O=S(=O)(Cc1ccccc1)c1ccc(Cl)cc1 [Example 50, 1-Chloro-4-(benzylsulfonyl)benzene]"
6,183 to 184 °C,"Cc1ncsc1CCC(c1cc(F)ccc1F)S(=O)(=O)c1ccc(Cl)cc1 (centres unmarked) [Example 319, 5-[3-(4-Chlorophenylsulfonyl)-3-(2,5-difluorophenyl)propyl]-4-methyl-1,3-thiazole]"
7,173 to 182 °C,"O=S(=O)(c1ccc(Cl)cc1)C1(c2cc(F)ccc2F)CC[S+]([O-])CC1 (centres unmarked) [Example 252, 4-[(4-Chlorophenyl)sulfonyl]-4-(2,5-difluorophenyl)tetrahydrothiopyran-1-on]"
8,113 to 114 °C,"O=S(=O)(c1ccc(Cl)cc1)C(c1ccc(CN2CCCCC2)cn1)c1cc(F)ccc1F (centres unmarked) [Example 336, 2-[(4-Chlorophenylsulfonyl)-(2,5-difluorophenyl)methyl]-5-(piperidin-1-ylmethyl)pyridine]"
9,154 to 157 °C,Cl.O=C(NCCCC(c1cc(F)ccc1F)S(=O)(=O)c1ccc(Cl)cc1)c1cccnc1 (centres unmarked)
10,105 to 106 °C,"Cc1ccccc1CCC(c1cc(F)ccc1F)S(=O)(=O)c1ccc(Cl)cc1 (centres unmarked) [Example 305, 2-[1-(4-Chlorophenylsulfonyl)-3-(2-methylphenyl)propyl]-1,4-difluorobenzene]"
11,106 to 107 °C,"CS(=O)(=O)NCCCCC(c1cc(F)ccc1F)S(=O)(=O)c1ccc(Cl)cc1 (centres unmarked) [Example 242, N-[5-[(4-Chlorophenyl)sulfonyl]-5-(2,5-difluorophenyl)pentyl]methanesulfonamide]"
12,125 to 129 °C,"CN(C)S(=O)(=O)N1CCC(c2cc(F)ccc2F)(S(=O)(=O)c2ccc(Cl)cc2)CC1 [Example 270, N,N-Dimethyl-4-[(4-chlorophenyl)sulfonyl]-4-(2,5-difluorophenyl)-1-piperidinesulfonamide]"
13,160 to 161 °C,"O=S(=O)(c1ccc(Cl)cc1)C(Cc1ccccc1)c1cc(F)ccc1F (centres unmarked) [Example 217, 2-[1-[(4-Chlorophenyl)sulfonyl]-2-phenylethyl]-1,4-difluorobenzene]"
14,156 to 157 °C,"CS(=O)(=O)CCCCC(c1cnccc1Cl)S(=O)(=O)c1ccc(Cl)cc1 (centres unmarked) [Example 105, 4-Chloro-3-[1-[(4-chlorophenyl)sulfonyl]-5-(methylsulfonyl)pentyl]pyridine]"
15,151 to 152 °C,"O=C(O)CCCC(c1cc(F)ccc1F)S(=O)(=O)c1ccc(Cl)cc1 (centres unmarked) [Example 202, 5-[(4-chlorophenyl)sulfonyl]-5-(2,5-difluorophenyl)-1-valeric Acid]"
16,135 to 136 °C,O=C(CCCCC(c1cc(F)ccc1F)S(=O)(=O)c1ccc(Cl)cc1)N1CCCC1 (centres unmarked) [Example 204]

row,melting point,Structure (SMILES)
1,87 to 88 °C,"Cc1cccc(CCC(c2cc(F)ccc2F)S(=O)(=O)c2ccc(Cl)cc2)c1 (centres unmarked) [Example 306, 2-[1-(4-Chlorophenylsulfonyl)-3-(3-methylphenyl)propyl]-1,4-difluorobenzene]"
2,141 to 142.5 °C,"CS(=O)(=O)CCCCC(c1ccc(F)cc1)S(=O)(=O)c1ccc(Cl)cc1 (centres unmarked) [Example 55, 1-[1-[(4-Chlorophenyl)sulfonyl]-5-(methylsulfonyl)pentyl]-4-fluorobenzene]"
3,106 to 107 °C,"O=S(=O)(c1ccc(Cl)cc1)C(CCN1CCCCC1)c1cc(F)ccc1F (centres unmarked) [Example 320, 1-[3-(4-Chlorophenylsulfonyl)-3-(2,5-difluorophenyl)propyl]piperidine]"
4,104 to 106 °C,"CS(=O)(=O)CCCCC(C1CCCCC1)S(=O)(=O)c1ccc(Cl)cc1 (centres unmarked) [Example 95, 1-Chloro-4-[1-cyclohexyl-5-(methylsulfonyl)pentylsulfonyl]benzene]"
5,146 to 147 °C,"CS(=O)(=O)CCCCC(c1ccc2ccccc2c1)S(=O)(=O)c1ccc(Cl)cc1 (centres unmarked) [Example 67, 2-[1-[(4-Chlorophenyl)sulfonyl]-5-(methylsulfonyl)pentyl]naphthalene]"
6,54 to 56 °C,"C=COCCCCC(c1cc(F)ccc1F)S(=O)(=O)c1ccc(Cl)cc1 (centres unmarked) [Example 28, 2-[1-[(4-Chlorophenyl)sulfonyl]-5-vinyloxypentyl]-1,4-difluorobenzene]"
7,184 to 190 °C,Cl.O=S(=O)(c1ccc(Cl)cc1)C(c1cc(F)ccc1F)C1CCNCC1 (centres unmarked)
8,143 to 146 °C,"CN(C)C(=O)N1CCC(c2cc(F)ccc2F)(S(=O)(=O)c2ccc(Cl)cc2)CC1 [Example 268, N,N-dimethyl-4-[(4-chlorophenyl)sulfonyl]-4-(2,5-difluorophenyl)-1-piperidinecarboxamide]"
9,107 to 108 °C,"O=S(=O)(c1ccc(Cl)cc1)C(CCCc1ccccc1)c1cc(F)ccc1F (centres unmarked) [Example 312, 2-[1-(4-Chlorophenylsulfonyl)-4-phenylbutyl]-1,4-difluorobenzene]"
10,131 to 132 °C,"O=S(=O)(c1ccc(Cl)cc1)C(CCc1ccc(F)cc1)c1cc(F)ccc1F (centres unmarked) [Example 309, 2-[1-(4-Chlorophenylsulfonyl)-3-(4-fluorophenyl)propyl]-1,4-difluorobenzene]"
11,151 to 152 °C,"CS(=O)(=O)CCCCC(c1ccccc1)S(=O)(=O)c1ccc(Cl)cc1 (centres unmarked) [Example 51, 1-Chloro-4-(5-methylsulfonyl-1-phenylpentyl)sulfonylbenzene]"
12,172 to 174 °C,"CCNC(=O)N1CCC(c2cc(F)ccc2F)(S(=O)(=O)c2ccc(Cl)cc2)CC1 [Example 272, N-ethyl-4-[(4-chlorophenyl)sulfonyl]-4-(2,5-difluorophenyl)-1-piperidinecarboxamide]"
13,172 to 175 °C,"CN1CCC(c2cc(F)ccc2F)(S(=O)(=O)c2ccc(Cl)cc2)CC1 [Example 261, 4-[(4-Chlorophenyl)sulfonyl]-4-(2,5-difluorophenyl)-1-methylpiperidine]"
14,128 °C,"CS(=O)(=O)NCCCC(c1cc(F)ccc1F)S(=O)(=O)c1ccc(Cl)cc1 (centres unmarked) [Example 230, N-[4-[(4-Chlorophenyl)sulfonyl]-4-(2,5-difluorophenyl)butyl]methanesulfonamide]"
15,84 to 85 °C,"O=S(=O)(c1ccc(Cl)cc1)C(Sc1ccccc1)c1cc(F)ccc1F (centres unmarked) [Example 57, 2-[1-[(4-Chlorophenyl)sulfonyl]-1-phenylthio]methyl-1,4-difluorobenzene]"
16,163 °C,"CC(CCNS(C)(=O)=O)C(c1cc(F)ccc1F)S(=O)(=O)c1ccc(Cl)cc1 (centres unmarked) [Example 244, N-[4-[(4-Chlorophenyl)sulfonyl]-4-(2,5-difluorophenyl)-3-methylbutyl]methanesulfonamide]"
